# Assay results taken from ChEMBL document CHEMBL1201862, “PubChem BioAssay data set” (2004).
#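 Following 48 hours of exposure in 96-well plates, responses at five concentrations were used to interpolate endpoints linearly. The concentration for 50% growth inhibition is given as GI50.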 The source made the active and inactive calls. Cut-off read from the data, not from the text of the source: active = GI50 up to about 1.1 µM and inactive = higher.
# Experiments:
# Experiment in all cases: DTP human tumour cell line panel, 48 h
# OVCAR-5 = system: OVCAR-5
# ACHN = system: ACHN
# COLO 205 = system: COLO 205
# NCI-H460 = system: NCI-H460
# HL-60 = system: HL-60
# M14 = system: M14
# A498 = system: A498
# HCC 2998 = system: HCC 2998
# SNB-75 = system: SNB-75
# SF-268 = system: SF-268
# CAKI-1 = system: CAKI-1
# OVCAR-8 = system: OVCAR-8
# OVCAR-3 = system: OVCAR-3
# SNB-19 = system: SNB-19
# OVCAR-4 = system: OVCAR-4
# RXF 393 = system: RXF 393
Compound,GI50 (OVCAR-5),GI50 (ACHN),GI50 (COLO 205),GI50 (NCI-H460),GI50 (HL-60),GI50 (M14),GI50 (A498),GI50 (HCC 2998),GI50 (SNB-75),GI50 (SF-268),GI50 (CAKI-1),GI50 (OVCAR-8),GI50 (OVCAR-3),GI50 (SNB-19),GI50 (OVCAR-4),GI50 (RXF 393)
CCN1CCC(O)(c2ccc(Cl)c(Cl)c2)C(C(=O)c2ccc(Cl)c(Cl)c2)C1 (stereo not given),19.2 µM (inactive),13.3 µM (inactive),16.9 µM (inactive),21.3 µM (inactive),15.2 µM (inactive),16.7 µM (inactive),21.5 µM (inactive),19.9 µM (inactive),14.3 µM (inactive),18.2 µM (inactive),18.3 µM (inactive),19.8 µM (inactive),13.7 µM (inactive),19.7 µM (inactive),18.3 µM (inactive),–
CN(C)P(=O)(/C(N)=N/Nc1ccc([N+](=O)[O-])cc1)N(C)C,> 100 µM (inactive),> 100 µM (inactive),> 100 µM (inactive),> 100 µM (inactive),> 100 µM (inactive),> 100 µM (inactive),0.558 µM (active),> 100 µM (inactive),> 100 µM (inactive),> 100 µM (inactive),> 100 µM (inactive),> 100 µM (inactive),> 100 µM (inactive),> 100 µM (inactive),85.1 µM (inactive),–
O=C(c1ccc(Cl)cc1)N(C(=S)N1CCN(c2ccccn2)CC1)c1ccccc1,> 100 µM (inactive),> 100 µM (inactive),> 100 µM (inactive),> 100 µM (inactive),32.7 µM (inactive),> 100 µM (inactive),–,–,> 100 µM (inactive),> 100 µM (inactive),> 100 µM (inactive),> 100 µM (inactive),66.4 µM (inactive),> 100 µM (inactive),> 100 µM (inactive),15.6 µM (inactive)
COc1cc(C(=O)C/C(CCC(=O)Nc2ccc(Cl)cc2Cl)=N/Nc2nnc(C)n2N)ccc1O,> 100 µM (inactive),> 100 µM (inactive),> 100 µM (inactive),> 100 µM (inactive),> 100 µM (inactive),> 100 µM (inactive),92.7 µM (inactive),> 100 µM (inactive),> 100 µM (inactive),> 100 µM (inactive),45.9 µM (inactive),> 100 µM (inactive),> 100 µM (inactive),> 100 µM (inactive),–,> 100 µM (inactive)
C=CCC(O)c1cc(OC)ccc1OC (stereo not given),> 100 µM (inactive),> 100 µM (inactive),> 100 µM (inactive),> 100 µM (inactive),> 100 µM (inactive),> 100 µM (inactive),–,> 100 µM (inactive),> 100 µM (inactive),> 100 µM (inactive),> 100 µM (inactive),> 100 µM (inactive),> 100 µM (inactive),> 100 µM (inactive),> 100 µM (inactive),> 100 µM (inactive)
O=c1[nH][nH]c(=O)[nH]1,> 100 µM (inactive),–,> 100 µM (inactive),> 100 µM (inactive),> 100 µM (inactive),> 100 µM (inactive),–,> 100 µM (inactive),> 100 µM (inactive),> 100 µM (inactive),> 100 µM (inactive),–,> 100 µM (inactive),> 100 µM (inactive),> 100 µM (inactive),> 100 µM (inactive)
CCOC(=O)/C(=C/c1cccc(C#N)c1)N(CC)CC,> 100 µM (inactive),> 100 µM (inactive),> 100 µM (inactive),> 100 µM (inactive),> 100 µM (inactive),> 100 µM (inactive),> 100 µM (inactive),> 100 µM (inactive),> 100 µM (inactive),> 100 µM (inactive),> 100 µM (inactive),> 100 µM (inactive),–,–,> 100 µM (inactive),–
N=C1NC2(O)C(=O)c3ccccc3C2(O)N1 (stereo not given),> 100 µM (inactive),> 100 µM (inactive),> 100 µM (inactive),> 100 µM (inactive),> 100 µM (inactive),> 100 µM (inactive),> 100 µM (inactive),–,> 100 µM (inactive),> 100 µM (inactive),> 100 µM (inactive),> 100 µM (inactive),> 100 µM (inactive),> 100 µM (inactive),> 100 µM (inactive),> 100 µM (inactive)
N#C/C(=C1\OC(=N)C(c2ccc(Cl)cc2Cl)C1=O)c1ccc(Cl)cc1Cl (stereo not given),> 100 µM (inactive),> 100 µM (inactive),> 100 µM (inactive),–,> 100 µM (inactive),> 100 µM (inactive),> 100 µM (inactive),–,58.9 µM (inactive),> 100 µM (inactive),> 100 µM (inactive),> 100 µM (inactive),> 100 µM (inactive),> 100 µM (inactive),> 100 µM (inactive),> 100 µM (inactive)
NC(=O)N/N=C(/c1nc2ccc([N+](=O)[O-])cc2nc1O)C(O)c1ccco1 (stereo not given),> 100 µM (inactive),28.4 µM (inactive),40 µM (inactive),59.6 µM (inactive),13.1 µM (inactive),93.8 µM (inactive),–,31 µM (inactive),97.9 µM (inactive),63.4 µM (inactive),61.7 µM (inactive),> 100 µM (inactive),> 100 µM (inactive),> 100 µM (inactive),> 100 µM (inactive),> 100 µM (inactive)
CCOC(=O)C(C(=O)OCC)S(C)(=O)=O,> 100 µM (inactive),> 100 µM (inactive),> 100 µM (inactive),> 100 µM (inactive),> 100 µM (inactive),> 100 µM (inactive),> 100 µM (inactive),> 100 µM (inactive),–,–,–,> 100 µM (inactive),> 100 µM (inactive),> 100 µM (inactive),> 100 µM (inactive),> 100 µM (inactive)
O=C1c2ccccc2C(=O)C2C3c4ccccc4C(c4ccccc43)C12 (stereo not given),–,30.6 µM (inactive),45 µM (inactive),50.2 µM (inactive),–,56.4 µM (inactive),–,36.3 µM (inactive),15.6 µM (inactive),13.4 µM (inactive),–,12.6 µM (inactive),19.5 µM (inactive),26.9 µM (inactive),–,7.8 µM (inactive)
c1ccc(CN2CCCCC(Sc3ccccc3)CC2)cc1 (stereo not given),18.3 µM (inactive),47.3 µM (inactive),13.4 µM (inactive),20.2 µM (inactive),23.3 µM (inactive),16.1 µM (inactive),> 100 µM (inactive),16 µM (inactive),30.5 µM (inactive),> 100 µM (inactive),26.9 µM (inactive),27.8 µM (inactive),33.9 µM (inactive),34 µM (inactive),46.7 µM (inactive),–
N#CC(C(=O)/C(=N/N)C(C#N)c1ccccc1)c1ccccc1 (stereo not given),> 100 µM (inactive),> 100 µM (inactive),–,> 100 µM (inactive),> 100 µM (inactive),> 100 µM (inactive),–,> 100 µM (inactive),–,> 100 µM (inactive),> 100 µM (inactive),> 100 µM (inactive),> 100 µM (inactive),> 100 µM (inactive),> 100 µM (inactive),> 100 µM (inactive)
c1cncc(C2c3[nH]c4ccccc4c3CCN2CCN2CCCCC2)c1 (stereo not given),> 100 µM (inactive),> 100 µM (inactive),–,> 100 µM (inactive),41.5 µM (inactive),16.1 µM (inactive),70.8 µM (inactive),> 100 µM (inactive),43.6 µM (inactive),> 100 µM (inactive),> 100 µM (inactive),> 100 µM (inactive),> 100 µM (inactive),> 100 µM (inactive),> 100 µM (inactive),–
CNC(SC)=C1C(=O)OC(C)(C)OC1=O,> 100 µM (inactive),> 100 µM (inactive),45.8 µM (inactive),50 µM (inactive),> 100 µM (inactive),> 100 µM (inactive),> 100 µM (inactive),> 100 µM (inactive),> 100 µM (inactive),> 100 µM (inactive),> 100 µM (inactive),> 100 µM (inactive),> 100 µM (inactive),> 100 µM (inactive),–,68.9 µM (inactive)
COc1ccc(C2=NN(c3ccccc3)C[N+](c3ccc(C)cc3)=N2)cc1,29.9 µM (inactive),50.2 µM (inactive),31.3 µM (inactive),65.5 µM (inactive),27.7 µM (inactive),–,63 µM (inactive),> 100 µM (inactive),–,70.6 µM (inactive),–,78.2 µM (inactive),23 µM (inactive),34.1 µM (inactive),13.2 µM (inactive),19.5 µM (inactive)
CN(C)CCNC(=O)c1ccc(Cl)c2c(Nc3ccc(S(N)(=O)=O)cc3)c3ccccc3nc12,2.95 µM (inactive),1.67 µM (inactive),0.61 µM (active),0.706 µM (active),0.553 µM (active),2.34 µM (inactive),2.72 µM (inactive),3.03 µM (inactive),1.33 µM (inactive),1.41 µM (inactive),4.54 µM (inactive),0.65 µM (active),2.42 µM (inactive),1.84 µM (inactive),1.93 µM (inactive),–
CC(O)c1ccc[n+](Cc2ccccc2)c1 (stereo not given),> 400 µM (inactive),> 400 µM (inactive),> 400 µM (inactive),> 400 µM (inactive),> 400 µM (inactive),–,–,> 400 µM (inactive),–,> 400 µM (inactive),> 400 µM (inactive),> 400 µM (inactive),> 400 µM (inactive),> 400 µM (inactive),–,> 400 µM (inactive)
